{
  "source": "paper PMC3467072",
  "about": "(Nucleic Acids Research, 2012)",
  "tested_on": "Rv3066–IR1",
  "assay_type": "binding, Mycobacterium tuberculosis",
  "conditions": "1 µM ethidium versus no ethidium",
  "data": [
    {"smiles": "CC[n+]1c(-c2ccccc2)c2cc(N)ccc2c2ccc(N)cc21", "note": "[ethidium, ethidium bromide]", "values": [
      {"measurement": "Weakening of the binding affinity between Rv3066 and IR1", "result": 2.4, "unit": "times"}
    ]}
  ]
}
